Reference: patent publication US20150150787A1 (Pearl Therapeutics, Inc., priority 2013, published 2015)

Tests used:
[1] = Aerodynamic particle size distribution by Next Generation Impactor, MF/GP/FF triple cosuspension MDIs (Example 1); type: physicochemical; settings: for FPM values when MF strength was varied: FF 4.8 μg and GPBr 18 μg/actuation, MF 100-300 μg/actuation
Method: The FF, GPBr, and MF materials were provided as a separate species of active agent particles, with each of the active agents provided as micronized, crystalline material. The co-suspension compositions were provided in pressurized metered dose inhalers (“MDI” or “MDIs”), with each formulation prepared to provide a delivered dose of 4.8 μg/actuation and 18 μg/actuation, respectively, of FF and GPBr. However, the amount of MF included in the three different compositions was varied, with compositions prepared to provide a delivered dose of MF selected from one of 100 μg/actuation, 200 μg/actuation, and 300 μg/actuation.
The suspending particles used in these co-suspensions were perforated microstructures prepared as described herein using a phospholipid material (DSPC). Drug crystals of GPBr (Boehringer Ingelheim, Petersberg, Va.) were micronized by air jet milling after receipt (median size, X50, ˜1.6 μm), but the FF (Inke, S.A., Barcelona Spain; X50˜1.4 μm) and MF (Hovione, Loures Portugal; X50˜1.6 μm) drug crystals were used as received. The Co-suspension formulations were prepared in HFA 134a propellant (Mexichem, S.A., Tlanepantla Mexico) and filled into 14 mL fluorinated ethylene polymer coated aluminum canisters (Presspart, Blackburn, UK), packaged with 50 μl valves, and delivered using an actuator with orifice size 0.3 mm (Bespak, King's Lynn, UK). Aerodynamic particle size distributions (aPSD) were obtained using the Next Generation Impactor (NGI) with the flow rate set to 30±1 LPM (n=3). Drug content was measured using ion-exchange HPLC with UV detection for FF and GP or reversed-phase HPLC with UV detection for MF.

[2] = Aerosol performance by Next Generation Impactor, BD/GP/FF cosuspension MDIs (Example 2); type: physicochemical; settings: NGI 30 LPM, versus mono/dual cosuspensions or other strengths

MF FPM dose proportionality, slope ([1]; FPM = drug mass stages 3 through MOC, MF 100, 200, 300 μg/actuation, NGI 30 LPM, n=3) | Compound | FPM values when MF strength was varied [1] | Coformulation effect (aerosol performance) when formulated in the triple cosuspensions [2]
 | COc1ccc(C[C@@H](C)NC[C@H](O)c2ccc(O)c(NC=O)c2)cc1 (racemic) [FF, (±)-2-hydroxy-5-[(1RS)-1-hydroxy-2-[[(1RS)-2-(4-methoxyphenyl)-1-methylethyl]-amino]ethyl] formanilide] | remained virtually unchanged | no coformulation effect was observed
0.48 | C[C@@H]1C[C@H]2[C@@H]3CCC4=CC(=O)C=C[C@]4(C)[C@@]3(Cl)[C@@H](O)C[C@]2(C)[C@@]1(OC(=O)c1ccco1)C(=O)CCl [MF, mometasone furoate] |  | 
 | C[N+]1(C)CCC(OC(=O)C(O)(c2ccccc2)C2CCCC2)C1 (stereo not shown) [GP, (3-[(cyclopentylhydroxyphenylacetyl)oxy]-1,1-dimethyl-, bromide)] | remained virtually unchanged | 
